In ChEMBL document CHEMBL1138223, “Synthesis of low-hemolytic antimicrobial dehydropeptides based on gramicidin s” (2006) one finds MIC and Activity data, which are given here for six compounds.

The test system of one experiment is Escherichia coli. Briefly: Antimicrobial activity against Escherichia coli K12 W3110 by liquid broth method. The class given is functional.
A further experiment deals with Erythrocyte. The experiment is described as follows: Induction of human erythrocyte hemolysis. It is filed as functional, cell-based.
The next experiment deals with Staphylococcus aureus. The experiment is described as follows: Antimicrobial activity against Staphylococcus aureus 209P by liquid broth method. The class given is functional.

SMILES strings stand for the structures. Values after ≈ are worked out from the molar mass of the structure shown. Active and inactive are the calls of the source. The calls are words filed in the database; no cut-off is given here. Numbered stars: 1 amine (or outer) side, 2 acyl side, 3 side chain; on linkers, the order of the positions; unused ones are H or OH. Square brackets hold non-standard residues; d marks the D form. Peptide text beside a SMILES is read from it. X1 = O=C(/C(=C/c1cccnc1)N[*:1])[*:2]; X2 = O=C(/C(=C/c1ccccc1)N[*:1])[*:2]; Orn = NCCC[C@H](N)C(=O)O

In the case of `CC(C)C[C@@H]1NC(=O)[C@H](CCCN)NC(=O)[C@H](C(C)C)NC(=O)[C@@H]2CCCN2C(=O)[C@@H](Cc2cccnc2)NC(=O)[C@H](CC(C)C)NC(=O)[C@H](CCCN)NC(=O)[C@H](C(C)C)NC(=O)[C@@H]2CCCN2C(=O)[C@@H](Cc2cccnc2)NC1=O`, the MIC against Escherichia coli and with Staphylococcus aureus was 64 µg/mL (≈ 56 µM) each time. Moreover, the outcome in the experiment on Erythrocyte was inactive.
Consider `CC(C)C[C@@H]1NC(=O)[C@H](CCCN)NC(=O)[C@H](C(C)C)NC(=O)[C@@H]2CCCN2C(=O)/C(=C/c2cccnc2)NC(=O)[C@H](CC(C)C)NC(=O)[C@H](CCCN)NC(=O)[C@H](C(C)C)NC(=O)[C@@H]2CCCN2C(=O)/C(=C/c2cccnc2)NC1=O` (cyclo(L[X1]PV[Orn]L[X1]PV[Orn])), for which the MIC with Escherichia coli turned out to be 32 µg/mL (≈ 28.1 µM); in the experiment on Staphylococcus aureus it was 8 µg/mL (≈ 7.02 µM).
Taken in the same sequence, the figures for `CC(C)C[C@@H]1NC(=O)[C@H](CCCN)NC(=O)[C@H](C(C)C)NC(=O)[C@@H]2CCCN2C(=O)/C(=C/c2ccccc2)NC(=O)[C@H](CC(C)C)NC(=O)[C@H](CCCN)NC(=O)[C@H](C(C)C)NC(=O)[C@@H]2CCCN2C(=O)/C(=C/c2cccnc2)NC1=O` (cyclo(L[X2]PV[Orn]L[X1]PV[Orn])) were 32 µg/mL (≈ 28.1 µM) and 4 µg/mL (≈ 3.51 µM).
Taken in the same sequence, the figures for `CC(C)C[C@@H]1NC(=O)[C@H](CCCN)NC(=O)[C@H](C(C)C)NC(=O)[C@@H]2CCCN2C(=O)/C(=C/c2ccccc2)NC(=O)[C@H](CC(C)C)NC(=O)[C@H](CCCN)NC(=O)[C@H](C(C)C)NC(=O)[C@@H]2CCCN2C(=O)/C(=C/c2ccccc2)NC1=O` (cyclo(L[X2]PV[Orn]L[X2]PV[Orn])) were 32 µg/mL (≈ 28.1 µM) and 4 µg/mL (≈ 3.52 µM).
The matching figures for `CC(C)C[C@@H]1NC(=O)[C@H](CCCN)NC(=O)[C@H](C(C)C)NC(=O)[C@@H]2CCCN2C(=O)[C@@H](Cc2ccc(O)cc2)NC(=O)[C@H](CC(C)C)NC(=O)[C@H](CCCN)NC(=O)[C@H](C(C)C)NC(=O)[C@@H]2CCCN2C(=O)[C@@H](Cc2ccc(O)cc2)NC1=O` (cyclo(L[dY]PV[Orn]L[dY]PV[Orn])): 32 µg/mL (≈ 27.3 µM) and 4 µg/mL (≈ 3.41 µM).
`CC(C)C[C@@H]1NC(=O)[C@H](CCCN)NC(=O)[C@H](C(C)C)NC(=O)[C@@H]2CCCN2C(=O)[C@@H](Cc2ccccc2)NC(=O)[C@H](CC(C)C)NC(=O)[C@H](CCCN)NC(=O)[C@H](C(C)C)NC(=O)[C@@H]2CCCN2C(=O)[C@@H](Cc2ccccc2)NC1=O` [GRAMICIDIN S] (cyclo(L[dF]PV[Orn]L[dF]PV[Orn])): the MIC amounted to 16 µg/mL (≈ 14 µM) against Escherichia coli and 4 µg/mL (≈ 3.5 µM) with Staphylococcus aureus.

The MIC is the lowest concentration found to suppress growth. Higher therefore signals a need for much substance.
